Source: patent publication US7632933B2, “Corticotropin releasing factor 2 receptor agonists” (priority 2002, dated 2009)
Ends that are not written are not given here.

Columns and labels:
CRF1R = biological target: T1, CRF1R (Homo sapiens, UniProt P34998); test: CRF1R agonist activity (EC50 and Emax), called comparative CRF binding; assay type: cell-based; conditions: CRF1R; read-out: CRF1R EC50
T1 sequence (P34998 24-415): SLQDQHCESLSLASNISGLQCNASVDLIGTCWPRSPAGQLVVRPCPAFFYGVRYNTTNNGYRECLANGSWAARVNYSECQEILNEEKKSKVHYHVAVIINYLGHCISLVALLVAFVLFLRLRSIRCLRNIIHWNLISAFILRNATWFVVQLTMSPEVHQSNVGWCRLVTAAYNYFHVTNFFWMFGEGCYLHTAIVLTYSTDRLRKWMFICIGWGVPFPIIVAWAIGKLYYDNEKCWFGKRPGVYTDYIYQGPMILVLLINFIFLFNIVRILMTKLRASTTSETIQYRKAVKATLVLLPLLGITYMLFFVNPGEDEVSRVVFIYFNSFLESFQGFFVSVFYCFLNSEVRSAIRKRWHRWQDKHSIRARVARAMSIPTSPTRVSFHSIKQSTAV
Summary of the method: (§1)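 Cells expressing only CRF1R or CRF2R (or recombinant receptor) were contacted with peptide or vehicle control. Receptor activation was measured as cAMP induction in cell lysates or via a cAMP-responsive-element reporter gene.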

CRF2R = biological target: T2, CRF2R (Homo sapiens, UniProt Q13324); test: CRF2R agonist activity (EC50 and Emax), called comparative CRF binding; assay type: cell-based; conditions: CRF2R; read-out: CRF2R EC50
T2 sequence (Q13324 1-411): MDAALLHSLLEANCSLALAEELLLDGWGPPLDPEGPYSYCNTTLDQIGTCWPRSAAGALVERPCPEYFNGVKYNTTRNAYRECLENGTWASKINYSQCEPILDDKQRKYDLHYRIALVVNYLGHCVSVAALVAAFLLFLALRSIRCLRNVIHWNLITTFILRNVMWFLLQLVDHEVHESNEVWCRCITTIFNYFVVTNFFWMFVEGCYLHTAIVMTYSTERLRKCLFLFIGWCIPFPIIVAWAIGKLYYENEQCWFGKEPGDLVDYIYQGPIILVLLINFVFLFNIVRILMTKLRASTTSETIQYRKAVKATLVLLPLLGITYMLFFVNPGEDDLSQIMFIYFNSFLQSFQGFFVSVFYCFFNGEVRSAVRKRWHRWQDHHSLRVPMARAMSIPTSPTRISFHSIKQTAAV
Summary of the method: as §1

Substance	EC50 (CRF1R) [nM]	EC50 (CRF2R) [nM]
SQEPPISLDLPLYLLREVLEMTKADQLAQQAHSNRKLLDIA-NH2 [compound 101]	≥ 100	≥ 100
SQEPPISLDLPTELLREVLEMTKADQLAQQAHSNRKIIDIA-NH2 [compound 92]	≥ 100	≥ 100
SQEPPISLDLPTGLLREVLEMTKADQLAQQAHSNRKLLDIA-NH2 [compound 98]	≥ 100	≥ 100
SQEPPISLDLPTHLLREVLEMTKADQLAQQAHSNRKLLDIA-NH2 [compound 99]	≥ 100	≥ 100
SQEPPISLDLPTQLLREVLEMTKADQLAQQAHSNRKLLDIA-NH2 [compound 105]	≥ 100	≥ 100
SQEPPISLDLPTYLLREVLEMTKADQLAQQAHSNRKLLDIA-NH2 [compound 106]	≥ 100	≥ 100
SQEPPISLDLTFGLLREVLEMTKADQLAQQAHSNRKLLDIA-NH2 [compound 88]	≥ 100	≥ 100
SQEPPISLDLTIGLLREVLEMTKADQLAQQAHSNRKLLDIA-NH2 [compound 86]	≥ 100	≥ 100
SQEPPISLDLTIHLLREVLEMTKADQLAQQAHSNRKLLDIA-NH2 [compound 87]	≥ 100	≥ 100
